Source: ChEMBL document CHEMBL1201862, “PubChem BioAssay data set” (2004)
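Five concentrations, 48 hours, 96-well plates. GI50 marks 50% less growth.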 Activity calls are given as the source filed them. Rule as the data show it: active = GI50 up to about 1.1 µM and inactive = higher.

How the values were obtained:
Test in all cases: DTP human tumour cell line panel, 48 h
[1] = system: LXFL 529
[2] = system: UACC-62
[3] = system: NCI-H522
[4] = system: UO-31
[5] = system: SNB-75
[6] = system: SW-620
[7] = system: SNB-78
[8] = system: COLO 205
[9] = system: SF-295
[10] = system: K562
[11] = system: KM-20L2
[12] = system: SR
[13] = system: UACC-257
[14] = system: DLD-1
[15] = system: RXF 393
[16] = system: TK-10
[17] = system: NCI-H226
[18] = system: NCI-H460
[19] = system: DMS-273
[20] = system: M19-MEL
[21] = system: M14
[22] = system: CAKI-1
[23] = system: SK-MEL-2
[24] = system: LOX IMVI
[25] = system: IGROV-1
[26] = system: DMS-114
[27] = system: RXF 631
[28] = system: OVCAR-5
[29] = system: OVCAR-3
[30] = system: HOP-62
[31] = system: HCT-15
[32] = system: HCC 2998
[33] = system: HCT-116
[34] = system: SNB-19
[35] = system: Malme-3M
[36] = system: OVCAR-4
[37] = system: SF-539
[38] = system: SF-268
[39] = system: MOLT-4
[40] = system: SK-MEL-28
[41] = system: U-251
[42] = system: HT-29
[43] = system: A549
[44] = system: XF498
[45] = system: RPMI-8226
[46] = system: SK-MEL-5
[47] = system: OVCAR-8
[48] = system: KM12
[49] = system: ACHN
[50] = system: SN12C
[51] = system: NCI-H23
[52] = system: HL-60
[53] = system: A498
[54] = system: 786-0
[55] = system: CCRF-CEM
[56] = system: EKVX
[57] = system: SK-OV-3
[58] = system: HOP-18
[59] = system: HOP-92

SMILES: CCOC(=O)[C@H]1Nc2c(cccc2[N+](=O)[O-])C2c3ccccc3CC21 (stereo partly drawn)
- GI50 [1]: > 100 µM (inactive)
- GI50 [2]: > 100 µM (inactive)
- GI50 [3]: > 100 µM (inactive)
- GI50 [4]: > 100 µM (inactive)
- GI50 [5]: > 100 µM (inactive)
- GI50 [6]: > 100 µM (inactive)
- GI50 [7]: > 100 µM (inactive)
- GI50 [8]: > 100 µM (inactive)
- GI50 [9]: 35.6 µM (inactive)
- GI50 [10]: > 100 µM (inactive)
- GI50 [11]: > 100 µM (inactive)
- GI50 [12]: 59.8 µM (inactive)
- GI50 [13]: 27.7 µM (inactive)
- GI50 [14]: > 100 µM (inactive)
- GI50 [15]: 3.15 µM (inactive)
- GI50 [16]: > 100 µM (inactive)
- GI50 [17]: > 100 µM (inactive)
- GI50 [18]: > 100 µM (inactive)
- GI50 [19]: > 100 µM (inactive)
- GI50 [20]: > 100 µM (inactive)
- GI50 [21]: > 100 µM (inactive)
- GI50 [22]: > 100 µM (inactive)
- GI50 [23]: > 100 µM (inactive)
- GI50 [24]: > 100 µM (inactive)
- GI50 [25]: > 100 µM (inactive)
- GI50 [26]: > 100 µM (inactive)
- GI50 [27]: > 100 µM (inactive)
- GI50 [28]: > 100 µM (inactive)
- GI50 [29]: 40.8 µM (inactive)
- GI50 [30]: > 100 µM (inactive)
- GI50 [31]: > 100 µM
- GI50 [32]: > 100 µM (inactive)
- GI50 [33]: > 100 µM (inactive)
- GI50 [34]: > 100 µM (inactive)
- GI50 [35]: > 100 µM (inactive)
- GI50 [36]: 36.9 µM (inactive)
- GI50 [37]: > 100 µM (inactive)
- GI50 [38]: > 100 µM (inactive)
- GI50 [39]: > 100 µM (inactive)
- GI50 [40]: > 100 µM (inactive)
- GI50 [41]: > 100 µM (inactive)
- GI50 [42]: 18.3 µM (inactive)
- GI50 [43]: > 100 µM (inactive)
- GI50 [44]: > 100 µM (inactive)
- GI50 [45]: > 100 µM (inactive)
- GI50 [46]: > 100 µM (inactive)
- GI50 [47]: > 100 µM (inactive)
- GI50 [48]: > 100 µM (inactive)
- GI50 [49]: 28.4 µM (inactive)
- GI50 [50]: > 100 µM (inactive)
- GI50 [51]: > 100 µM (inactive)

SMILES: N#C/N=C(/N)NCN/C(N)=N\C#N
- GI50 [1]: > 100 µM (inactive)
- GI50 [2]: > 100 µM (inactive)
- GI50 [3]: > 100 µM (inactive)
- GI50 [4]: > 100 µM (inactive)
- GI50 [5]: > 100 µM (inactive)
- GI50 [6]: 17.4 µM (inactive)
- GI50 [7]: > 100 µM (inactive)
- GI50 [8]: 64.6 µM (inactive)
- GI50 [9]: > 100 µM (inactive)
- GI50 [10]: 43.7 µM (inactive)
- GI50 [11]: > 100 µM (inactive)
- GI50 [52]: > 100 µM (inactive)
- GI50 [12]: 27.1 µM (inactive)
- GI50 [53]: > 100 µM (inactive)
- GI50 [13]: > 100 µM (inactive)
- GI50 [14]: 81.5 µM (inactive)
- GI50 [15]: 73.3 µM (inactive)
- GI50 [54]: 23.1 µM (inactive)
- GI50 [16]: > 100 µM (inactive)
- GI50 [17]: > 100 µM (inactive)
- GI50 [18]: > 100 µM (inactive)
- GI50 [19]: 58.9 µM (inactive)
- GI50 [20]: > 100 µM (inactive)
- GI50 [21]: > 100 µM (inactive)
- GI50 [22]: > 100 µM (inactive)
- GI50 [23]: > 100 µM (inactive)
- GI50 [25]: > 100 µM (inactive)
- GI50 [26]: > 100 µM (inactive)
- GI50 [27]: > 100 µM (inactive)
- GI50 [28]: > 100 µM (inactive)
- GI50 [29]: > 100 µM (inactive)
- GI50 [30]: > 100 µM (inactive)
- GI50 [31]: 22.3 µM
- GI50 [32]: > 100 µM (inactive)
- GI50 [55]: > 100 µM (inactive)
- GI50 [33]: > 100 µM (inactive)
- GI50 [34]: > 100 µM (inactive)
- GI50 [56]: > 100 µM (inactive)
- GI50 [35]: > 100 µM (inactive)
- GI50 [36]: 59.4 µM (inactive)
- GI50 [37]: > 100 µM (inactive)
- GI50 [38]: > 100 µM (inactive)
- GI50 [39]: > 100 µM (inactive)
- GI50 [40]: > 100 µM (inactive)
- GI50 [41]: > 100 µM (inactive)
- GI50 [42]: > 100 µM (inactive)
- GI50 [57]: > 100 µM (inactive)
- GI50 [43]: > 100 µM (inactive)
- GI50 [45]: > 100 µM (inactive)
- GI50 [46]: > 100 µM (inactive)
- GI50 [47]: > 100 µM (inactive)
- GI50 [48]: > 100 µM (inactive)
- GI50 [49]: > 100 µM (inactive)
- GI50 [58]: > 100 µM (inactive)
- GI50 [59]: > 100 µM (inactive)
- GI50 [50]: > 100 µM (inactive)
- GI50 [51]: > 100 µM (inactive)
